Patent US7932063B2, “Treatment of biomass to obtain fermentable sugars” (E. I. du Pont de Nemours and Company, priority 2005, dated 2011)
Read-outs that look alike come from different tables or passages of the source.

Tested on: Z. mobilis strain 8b
[1] = medium supplemented with 6 g/L acetamide, pH 6.0, 30° C., vs unsupplemented control, FIG. 1
[2] = medium supplemented with 7.2 g/L acetic acid, pH 6.0, 30° C., vs unsupplemented control, FIG. 1

Excerpt: Fermentation medium was composed of 10 g/L yeast extract, 2 g/L KH2PO4, 70 g/L glucose, 40 g/L xylose and 0.1 M MES buffer.

## CC(N)=O [acetamide]
[1]
  final density of Z. mobilis: no influence
  growth rate of Z. mobilis: no influence
Summary statement referring to Example 12
  inhibition of biocatalyst growth: non-inhibitory

## CC(=O)O [acetic acid]
[2]
  cell yield (as measured by dry cell mass): lower cell yield
  growth rate of Z. mobilis: reduced growth rate
